In US20220065865A1, “METHODS OF TREATMENT AND DIAGNOSIS OF TUMOURS” (UEA ENTERPRISES LIMITED, priority 2018, published 2022):

Columns and labels:
YBX1 [1] = biological target: YBX1 (Homo sapiens, UniProt P67809); details: Goodarzi et al., Cell 161, 790-802 (2015); cited from earlier work
YBX1 [2] = assay: qPCR transcriptional profiling of transfected tumour spheres: YBX1; assay type: cell-based, human; details: 50 nM mimic, pooled RNA of 6 replicates, normalised to ACTB
Description: (§1) Once tumour spheres had formed, tRF mimics (RNA), tRF inhibitors (LNA), miRNA mimics (LNA) and miRNA inhibitors (LNA) (Exiqon) were transfected using Lipofectamine 3000 (Thermo Fisher Scientific) in reduced serum media (Thermo Fisher Scientific) for a final concentration of 50 nM consisting of equal parts of each mimic or inhibitor (sequences in Table 1 above). Confirmation of cell entry at 50 nM concentration was determined after performing the transfection with FAM labelled sequences. After 6 hours of incubation reduced serum media containing mimics or inhibitors was replaced with fresh growth media. Tumour spheres were subjected to histology, fluorescence microscopy and transcriptional profiling 48 hours later. Transfections were performed in triplicate in 3 independent experiments.
(§2) We used qPCR as previously described (Fricke, C., Green, D., Smith, D., Dalmay, T. & Chapman, T. MicroRNAs influence reproductive responses by females to male sex peptide in Drosophila melanogaster. Genetics 198, 1603-19 (2014), the contents of which are incorporated herein by reference). Due to a limited amount of RNA, qPCR was performed on pools of control tissue, low grade, intermediate grade and high grade tumours. We also extracted and pooled RNA from 6 replicates of tumour spheres treated with a tRF-Gly-TCC mimic. […]

RUNX2 = assay: qPCR transcriptional profiling of transfected tumour spheres: RUNX2; assay type: cell-based, human; details: 50 nM mimic, pooled RNA of 6 replicates, normalised to ACTB, compared to control tissue
Description: as §1, §2

[3] = test system: chondrosarcoma tumour spheres (SW1353); assay: Tumour sphere assay with LNA and RNA transfection, histology and fluorescence microscopy; assay type: cell-based, human; details: 50 nM, 48 hours after transfection
Description: (§3) SW1353 (chondrosarcoma) cells were cultured in 1:1 DMEM/F-12 Supplement (Thermo Fisher Scientific) containing 10% (volume/volume) fetal bovine serum (Sigma Aldrich). Cells were fed with culture medium every other day and maintained at 37° C. in a […] atmosphere of 5% CO2. Cells were obtained from ATCC and authenticated by STR profiling. Cells were regularly monitored for Mycoplasma infection by PCR. Phenotypic checks for interleukin 1 response ensured cell phenotype was maintained.
Tumour spheres were constructed as previously described (Greco, K. V. et al. High density micromass cultures of a human chondrocyte cell line: a reliable assay system to reveal the modulatory functions of pharmacological agents. Biochem Pharmacol 82, 1919-29 (2011), the contents of which are incorporated herein by reference). Briefly, 80% confluent monolayer cell cultures were released by trypsin-EDTA and resuspended in growth medium at a density of 4.1×10^4 cells/mL. Tumour spheres were achieved by pipetting 20 μL of cell suspension into individual wells of 24 well plates. […]
as §1, with “After 6 hours of incubation reduced serum media containing mimics or inhibitors was replaced with fresh growth media.” left out, “Transfections were performed in triplicate in 3 independent experiments.” left out
Tumour spheres were fixed in 3.7% formaldehyde and treated with 0.2% Triton-X 100. […] DAPI fluorescence was excited at 365 nm and emission collected between 420 and 470 nm. Texas Red-X Phalloidin fluorescence was excited at 558 nm and emission collected through a 615 nm LP filter. Nuclear DAPI staining was segmented with the number and size of the nuclei quantified using ImageJ.

TP53 = assay: qPCR transcriptional profiling of transfected tumour spheres: TP53; assay type: cell-based, human; details: 50 nM mimic, pooled RNA of 6 replicates, normalised to ACTB, compared to control tissues
Description: as §1, §2

SOX9 = assay: qPCR transcriptional profiling of transfected tumour spheres: SOX9; assay type: cell-based, human; details: 50 nM mimic, pooled RNA of 6 replicates, normalised to ACTB, compared to control tissue
Description: as §1, §2

PTHLH = assay: qPCR transcriptional profiling of transfected tumour spheres: PTHLH; assay type: cell-based, human; details: 50 nM mimic, pooled RNA of 6 replicates, normalised to ACTB
Description: as §1, §2

HDAC4 = assay: qPCR transcriptional profiling of transfected tumour spheres: HDAC4; assay type: cell-based, human; details: 50 nM mimic, pooled RNA of 6 replicates, normalised to ACTB, compared to high grade tumours
Description: as §1, §2

IHH = assay: qPCR transcriptional profiling of transfected tumour spheres: IHH; assay type: cell-based, human; details: 50 nM mimic, pooled RNA of 6 replicates, normalised to ACTB
Description: as §1, §2

ANG = assay: qPCR transcriptional profiling of transfected tumour spheres: ANG; assay type: cell-based, human; details: 50 nM mimic, pooled RNA of 6 replicates, normalised to ACTB
Description: as §1, §2

[4] = test system: chondrosarcoma tumour spheres (SW1353); assay: Small molecule treatment of chondrosarcoma tumour spheres, nuclei counted by DAPI staining; assay type: cell-based, human; details: bone 3D tumour spheres; for cancer cell number in comparison with Control 1: 72 hours, Control 1 = 0.1% DMSO
Description: as §3
For the experiment reported in FIG. 8(b) the culture medium additionally contained 1% (v/v) penicillin streptomycin.
Tumour spheres were constructed as previously described (Greco, K. V. et al. High density micromass cultures of a human chondrocyte cell line: a reliable assay system to reveal the modulatory functions of pharmacological agents. Biochem Pharmacol 82, 1919-29 (2011), the contents of which are incorporated herein by reference). Briefly, 80% confluent monolayer cell cultures were released by trypsin-EDTA and resuspended in growth medium at a density of 4.1×10^4 cells/mL. Tumour spheres were achieved by pipetting 20 μL of cell suspension into individual wells of 24 well plates. Following a 3 hour intermolecular cohesion period 500 μL of growth medium was gently added. Cultures formed three dimensional spheres over the next 24 hours.
Growth media on chondrosarcoma tumour spheres was replaced with fresh media containing 0.1% DMSO (control 1), fresh media containing 0.2% DMSO (control 2), fresh media containing 50 μM small molecule 3-(N-(3,4-dichlorophenyl)carbamoyl)-5-norbornene-2-carboxylic acid, also named 3-{[(3,4-dichlorophenyl)amino]carbonyl}bicyclo[2.2.1]hept-5-ene-2-carboxylic acid, known as CADD522, fresh media containing 100 μM small molecule (CADD522). […] DAPI fluorescence was excited at 365 nm and emission collected between 420 and 470 nm. Nuclear DAPI staining was segmented with the number of the nuclei quantified using ImageJ. […] Statistical significance ([…]) was calculated using an unpaired t test with Prism 6.

Sequence of YBX1 (Homo sapiens, UniProt P67809) (P67809 whole entry): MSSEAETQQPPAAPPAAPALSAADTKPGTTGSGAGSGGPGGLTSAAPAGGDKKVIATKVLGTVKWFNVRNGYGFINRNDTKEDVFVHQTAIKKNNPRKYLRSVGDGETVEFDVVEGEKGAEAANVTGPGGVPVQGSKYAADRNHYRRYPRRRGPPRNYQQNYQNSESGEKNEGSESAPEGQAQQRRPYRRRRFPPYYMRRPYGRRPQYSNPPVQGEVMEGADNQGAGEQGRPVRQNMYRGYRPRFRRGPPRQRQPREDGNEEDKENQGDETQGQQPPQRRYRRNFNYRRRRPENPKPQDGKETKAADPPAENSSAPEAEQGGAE

Row | Molecule | binding to YBX1 (YBX1 [1]) | YBX1 mean relative expression (YBX1 [2]) | RUNX2 mean relative expression (RUNX2) | decrease in nuclear area compared to untreated tumour spheres [3] | phenotypic effect (nuclear and F-actin histology, inverted microscopy) [3] | nuclear area of tumour spheres ([3]; n=47 nuclei, untreated 488±12.4 μm^2 (n=230)) [μm^2] | TP53 mean relative expression (TP53) | SOX9 mean relative expression (SOX9) | PTHLP expression (PTHLH) | HDAC4 mean relative expression (HDAC4) | IHH mean relative expression (IHH) | ANG mean relative expression (ANG) | cancer cell number in comparison with Control 1 ([4]; 50 μM) | cancer cell number in comparison with Control 1 ([4]; 100 μM) | cancer cell number compared to controls ([4]; two biological replicate controls, unpaired t test)
1 | TRF-Gly-TCC: endogenous tRNA derived fragment containing a SCUBYC sequence motif (GCGUUGGUGGUAUAGUGGUGAGCAUAGCUGCC; listed as RNA, chemistry not fully specified) | substantial binding | increased expression | reduces RUNX2 expression to control levels | – | – | – | – | – | – | – | – | – | – | – | –
2 | tRF-Gly-TCC mimic: RNA mimic, sequence GCGUUGGUGGUAUAGUGGUGAGCAUAGCUGCC (listed as RNA, chemistry not given here) | – | – | reduced to the same level of expression as control tissue | more than two-fold decrease in nuclear area | low cancer cell number, shrunken nuclei and visible changes to morphology | 215±16.8 | reduces to be consistent with control tissues | remains at a reduced expression | lost | increases further | greatly reduced | greatly reduced | – | – | –
3 | O=C(O)C1C2C=CC(C2)C1C(=O)Nc1ccc(Cl)c(Cl)c1 (stereo not shown) [CADD522, 3-(N-(3,4-dichlorophenyl)carbamoyl)-5-norbornene-2-carboxylic acid] | – | – | – | – | – | – | – | – | – | – | – | – | about 70% | about 30% | significant reduction of cancer cell number
